Data on five compounds can be found in paper PMC8920304, “Potent Inhibition of Human Cytochrome P450 3A4 by Biflavone Components from Ginkgo Biloba and Selaginella Tamariscina” (Frontiers in Pharmacology, 2022).

Usually IC50 stands for the concentration at which inhibition is half-maximal. A word on the Ki: it is a dissociation constant, usually derived from enzyme kinetics or from competition with a known ligand. Read a low Ki as tighter binding.

The target in data set [1] is T1, CYP3A4 (Homo sapiens, UniProt P08684).
T1 construct: The primary incubation mixture contains HLM, potassium phosphate buffer; from tissue; host or cells: human liver microsomes (HLM)
The data set is described as follows: Inhibition of NEN 4-hydroxylation in human liver microsomes (fluorescence high-throughput screening). The format is in vitro ADME. Conditions: HLM, NEN probe, mean ± S.D. (n = 3); read-out: IC50 against CYP3A4 (NEN 4-hydroxylation). How it is done:
The primary incubation mixture contains HLM, potassium phosphate buffer (pH 7.4, 100 mM), G-6-P (10 mM), G-6-P dehydrogenase (1 U/ml), MgCl2 (4 mM), NEN (50 µM), extracts of herbal medicine (20 µg/ml), or components. The incubation duration and HLM protein concentrations were 30 min and 0.05 mg/ml, respectively. The reaction was initiated by the addition of NADP^+ and terminated by the addition of 100 µL ice-cold acetonitrile (ACN). NEN 4-hydroxylation were utilized as the probe reaction for CYP3A4, and fluorescence image of 96-well microplates were measured by a fluorescent image analyzer (GE Amersham Typhoon, Sweden) under the excitation wavelength of 488 nm (E m: 570 ± 15 nm). The formation of NEHN was evaluated by the quantitative analysis of fluorescence signal for individual wells of microplates using the equipment supporting software. The percentage residual activity was calculated from percentage relative value of NEHN formation rate.
A general note: Microsomes from liver hold many membrane-bound enzymes, among them those of drug oxidation.

Data set [2] concerns the target T1, CYP3A4. As to the kind of experiment: Inhibition of CYP3A4-mediated oxidation of clinical drugs (tamoxifen, gefitinib, ticagrelor) in HLM, LC-MS/MS. Conditions: 30 min, ± SD. The format is in vitro ADME. How it is done:
Varying concentrations of DGK, GK, IGK, and AMF incubated for 30 min with gefitinib (10 μM), tamoxifen (20 μM), ticagrelor (30 μM), respectively ([Wang et al., 2020]). The ExionLC AD HPLC system consisted of an autosampler, a quaternary delivery system and a degasser. The chromatograph was equipped with a Luna Omega PS C18 (2.1 × 100 mm, 3 μm) analytical column, and the mobile phase consisted of 0.1% formic acid aqueous solution (A) and ACN (B), and were conducted with a 0.30 ml/min flow rate as follow for the gradient program: 0–1.5 min (10–10% B), 1.5–3.0 min (10–45% B), 3.0–5.0 min (45–90% B). An AB MDS Sciex QTRAP 5500 Mass Spectrometer equipped with an ESI source was used to analyze the target substances. The positive mode was used with N-demethylated tamoxifen (358.0→58.0) and defluorinated gefitinib (445.0→128.0). The relative parameters were set as follows: ion spray voltage, 5500 V; temperature, 550°C; curtain gas (CUR) flow, […]; gas1 and gas2 (nitrogen), 45 and 55 psi. The negative mode was used with dehydroxyethoxylated ticagrelor (477.2→361.1). The relative parameters were set as follows: ion spray voltage, -4500 V; temperature, 550°C; curtain gas flow, […]; gas1 and gas2, 50 and 50 psi. For other parameters, please refer to Supplementary Table S1 in the supplementary data.

Data set [3] has as its target T1, CYP3A4. As to the kind of experiment: Inhibition kinetic characterization with NEN 4-hydroxylation in HLM. The format is in vitro ADME. As to conditions: for Type of inhibition: NEN 4-hydroxylation; for Ki: NEN 15-150 µM, 30 min; for ɑ (degree to which inhibitor binding influences enzyme-substrate binding): mixed-inhibition model. On the procedure: Varying concentrations of DGK, GK, IGK, and AMF incubated for 30 min with varying concentrations of NEN (15–150 µM). The high-throughput screening assay was performed, and the inhibition curve was fitted with GraphPad Prism (Version 8.0). The inhibition type was confirmed based on the R square of the following four equations and the Dixon and Lineweaver–Burk plots. The inhibition constant (K i) values were determined using the equations for competitive inhibition (Eq. 1), noncompetitive inhibition (Eq. 2), uncompetitive inhibition (Eq. 3), and mixed inhibition (Eq. 4). v=VmaxS/Km(1+I/Ki)+S (1) v=VmaxS/(Km+S)(1+I/Ki) (2) v=VmaxS/S(1+I/Ki)+Km (3) v=VmaxS/Km(1+I/Ki)+S(1+I/αKi) (4)

Data set [4] deals with T1, CYP3A4. Also noted: method as in Ning et al., 2019. Conditions: HLM; ref Ning et al., 2019; cited from earlier work.
The mark [5] stands for this setting: gefitinib 10 μM, defluorination, read-out: IC50 toward gefitinib.
The mark [6] stands for this setting: tamoxifen 20 μM, N-demethylation, read-out: IC50 toward tamoxifen.
The mark [7] stands for this setting: ticagrelor 30 μM, dehydroxyethoxylation, read-out: IC50 toward ticagrelor.

T1 sequence (P08684 whole entry): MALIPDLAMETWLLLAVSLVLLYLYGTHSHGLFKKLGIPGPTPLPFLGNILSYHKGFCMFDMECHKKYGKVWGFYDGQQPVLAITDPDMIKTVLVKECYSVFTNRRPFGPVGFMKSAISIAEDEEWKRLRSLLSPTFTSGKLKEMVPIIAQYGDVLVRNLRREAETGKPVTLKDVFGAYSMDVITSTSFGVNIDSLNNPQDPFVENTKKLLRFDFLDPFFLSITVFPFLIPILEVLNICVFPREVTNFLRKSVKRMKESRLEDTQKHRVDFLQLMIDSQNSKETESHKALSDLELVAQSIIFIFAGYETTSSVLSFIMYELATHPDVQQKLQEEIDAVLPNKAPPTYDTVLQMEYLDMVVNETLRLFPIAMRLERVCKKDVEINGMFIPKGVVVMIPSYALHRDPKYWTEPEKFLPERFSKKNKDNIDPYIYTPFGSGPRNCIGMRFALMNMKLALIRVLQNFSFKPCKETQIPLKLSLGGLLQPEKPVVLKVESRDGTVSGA

`O=c1cc(-c2ccc(O)c(-c3c(O)cc(O)c4c(=O)cc(-c5ccc(O)cc5)oc34)c2)oc2cc(O)cc(O)c12` [AMF, Amentoflavone]: the IC50 in data set [1] is 186 ± 4 nM; in data set [2] (setting [5]) it was 5200 ± 527 nM; in data set [2] (setting [6]) it was 2720 ± 93 nM; in data set [2] (setting [7]), 2920 ± 47 nM. For the same compound, in data set [3], the Type of inhibition entry is “mixed reversible inhibition”. In addition, in data set [3], the Ki was 101 ± 30 nM. For the same compound, in data set [3], the “ɑ (degree to which inhibitor binding influences enzyme-substrate binding)” value is given as 5.55.
As for `Cc1ccc(-c2c(-c3nn(C)c4ncnc(N5CC[C@H](N6CCCCC6)C5)c34)cnn2C)cc1` [CYP3cide], the “Inhibition of C4-hydroxylation of NEN in human liver microsomes (in words)” value in data set [4] is “strongly inhibited”.
`COc1ccc(-c2cc(=O)c3c(O)cc(O)cc3o2)cc1-c1c(O)cc(O)c2c(=O)cc(-c3ccc(O)cc3)oc12` [DGK, bilobetin]: the half-maximal inhibitory concentration (IC50) is 162 ± 22 nM in data set [1], 1720 ± 1 nM in data set [2] (setting [5]), 1020 ± 88 nM in data set [2] (setting [6]) and 3500 ± 34 nM in data set [2] (setting [7]). In addition, the Type of inhibition entry in data set [3] is given as “mixed reversible inhibition”. For the same compound, the Ki in data set [3] was determined as 70 ± 18 nM. The “ɑ (degree to which inhibitor binding influences enzyme-substrate binding)” value in data set [3] came out at 2.98.
For the compound `COc1cc(O)c2c(=O)cc(-c3ccc(OC)c(-c4c(O)cc(O)c5c(=O)cc(-c6ccc(O)cc6)oc45)c3)oc2c1` [GK, ginkgetin], the IC50 came out at 106 ± 4 nM in data set [1], 869 ± 1 nM in data set [2] (setting [5]), 478 ± 3 nM in data set [2] (setting [6]) and 1610 ± 39 nM in data set [2] (setting [7]). Moreover, the Type of inhibition result in data set [3] was “mixed reversible inhibition”. This compound also displayed a Ki in data set [3] of 34 ± 7 nM. Also, the “ɑ (degree to which inhibitor binding influences enzyme-substrate binding)” value in data set [3] was determined as 4.56.
Consider `COc1ccc(-c2cc(=O)c3c(O)cc(O)c(-c4cc(-c5cc(=O)c6c(O)cc(O)cc6o5)ccc4OC)c3o2)cc1` [IGK, isoginkgetin], for which the IC50 in data set [1] worked out at 982 ± 6 nM; in data set [2] (setting [5]), 13100 ± 415 nM; in data set [2] (setting [6]) it was 4660 ± 236 nM; in data set [2] (setting [7]) it was 10200 ± 382 nM. The Type of inhibition result in data set [3] is listed as “mixed reversible inhibition”. The Ki in data set [3] came out at 278 ± 87 nM. In addition, the “ɑ (degree to which inhibitor binding influences enzyme-substrate binding)” value in data set [3] was determined as 2.79.
